The target of series [1] is T1, GPR139 (Homo sapiens, UniProt Q6DWJ6).
T1 sequence (Q6DWJ6 1-353): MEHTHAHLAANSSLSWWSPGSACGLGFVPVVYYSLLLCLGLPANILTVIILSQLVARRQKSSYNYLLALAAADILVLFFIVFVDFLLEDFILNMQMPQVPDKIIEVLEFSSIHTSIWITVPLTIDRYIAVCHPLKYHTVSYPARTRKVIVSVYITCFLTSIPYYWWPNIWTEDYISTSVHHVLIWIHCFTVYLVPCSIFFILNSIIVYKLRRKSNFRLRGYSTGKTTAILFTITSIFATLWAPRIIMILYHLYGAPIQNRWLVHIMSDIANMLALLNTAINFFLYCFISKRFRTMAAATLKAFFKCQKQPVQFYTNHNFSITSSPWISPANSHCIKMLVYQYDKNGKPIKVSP
In words: GPR139 Antagonist titration assay (calcium detection, HEK-GPR139 cells, vs EC80 of S-JNJ-63533054). The conditions noted are these: for GPR139 Antagonist Activity Averaged Max % Response (±St. Dev.): activity relative to known control; for GPR139 Antagonist Activity Lipophilic Efficiency (logD): based on logD; for GPR139 Antagonist Activity Lipophilic Efficiency (logP): based on logP; for GPR139 Antagonist Activity Hill Slope: fitted dose-response curve.

In series [2] the target is T1, GPR139. As to the kind of experiment: GPR139 Agonist titration / agonist counterscreen assay (calcium detection, HEK-GPR139 cells). Format: cell-based. Further details: expressed in transfected cells; host or cells: HEK Aequorin cells, Maxcyte transient transfection. The conditions noted are these: agonist counterscreen of the antagonists; for EC50: scientific notation, molarity, read-out: GRP139 Agonist activity EC50. How it is done:
GPR activity was assessed using a calcium detection assay. […] Negative control samples were treated with DMSO. […] Intracellular calcium was measured using Calcium 5.
In general terms: A counterscreen serves to expose hits that act by an unwanted route or on another target.

In the next series the test system is parental HEK cells. As to the kind of experiment: HEK parental Antagonist Counterscreen Assay (non-transfected cells, acetylcholine control). Format: cell-based. The conditions noted are these: for EC50: Homo sapiens, HEK293, acetylcholine as control, scientific notation, molarity.
The target of series [3] is T1, GPR139. As to the kind of experiment: [3H]JNJ-63533054 radioligand competition binding assay on membranes of HEK293T/17 cells. The conditions noted are these: for inhibition at 10 µM: 10 μM of the indicated compound, (10 μM) JNJ-63533054 as printed in title; for Ki: Ki=IC50/(1+C/Kd), membranes of HEK293T/17 cells expressing human GPR139, read-out: Ki ± SEM. The arrangement: HA signal peptide (HASP) (N); expressed in transfected cells; host or cells: HEK293T/17 cells (membrane preparation). An excerpt:
Eighteen compounds were selected for additional study. The compounds were re-synthesized and tested in radioligand binding competition assays for their ability to displace [^3H]-labeled reference agonist JNJ-63533054 on GPR139. The GPR139 construct used (pCDNA3.1-HASP-HA-GPR139) contained an N-terminal HA signal peptide (HASP), followed by an HA tag and human GPR139 (NM_001002911.4). HEK293T/17 cells were maintained in Dulbecco's modified Eagle's medium with 10% (v/v) fetal bovine serum, nonessential amino acids, and 1 mM sodium pyruvate.
Competition binding assay: Radioligand binding assay used human GPR139 expressed in HEK293T/17 cells. HEK293T/17 cells were transfected pCDNA3.1-HASP-HA-GPR139. 48 h after, cells were detached from plates by pipetting with PBS, centrifuged at 500×g for 5 min, and then the fluid was aspirated away. The cell pellets were frozen with liquid nitrogen and stored at −80° C. Pellets were homogenized in TE buffer (50 mM Tris-HCl, pH 7.4, 5 mM EDTA) and centrifuged at 1000×g at 4° C. for 5 min. Supernatant was collected and recentrifuged at 30,000×g at 4° C. for 30 min. The pellet was rehomogenized in TE buffer and incubated for 60 minutes at room temperature with eight concentrations of [^3H]JNJ-63533054 (specific activity 24.7 Ci/mmol) ranging from 0.024 nM to 400 nM. The binding reaction was terminated by filtration through GF/C filter (Waterman) followed by washes with cold TE buffer. Filters were dried in a hood overnight followed by the addition of scintillation fluid. Bound radioactivity was counted on a Hidex 600 liquid scintillation counter. […] Nonspecific binding was determined with 10 μM JNJ-63533054. The Kd values of the radioligands and IC50 of the antagonist were calculated by Graphpad Prism. Ki values were calculated as Ki=IC50/(1+C/Kd), where C is concentration of the radioligand.
Various concentrations of selected ligands were then added in the presence of 10 nM [^3H]-JNJ-63533054 and their ability to displace [^3H]labeling on cellular membranes was assessed. FIGS. 3B and 3C present representative data obtained in these experiments. […] The results of these experiments are presented in the Table 3 and confirm selective binding the compounds to GPR139 thereby validating their interaction with the intended target.
In general terms: Displacement assays read how much labelled ligand stays bound in the presence of the test substance.

From patent US20250099420A1, “SMALL MOLECULE MODULATORS OF GPR139 COMPLEX” (University of Florida Research Foundation, Incorporated, priority 2022, published 2025) come the findings set out here.

Some results are limits rather than exact numbers.

Text for parental HEK cells: C. […] The HEK parental counterscreen utilized the same cells but not transfected with the plasmid. The agonist and antagonist modes were run the same way as the primary screen but acetylcholine was used in place of GPR139 agonist as the control compound.
The HEK parental counterscreen utilized the same cells but not transfected with the plasmid. The antagonist modes assays utilized the cells being plated in the 1536 well plate overnight in growth media prior to dye loading in PDL coated plates and acetylcholine was used in place of GPR139 agonist as the control compound.
The HEK parental counterscreen utilized the same cells but not transfected with the plasmid. Acetylcholine was used in place of GPR139 agonist as the control compound. The cells were plated overnight, similar to the HEK antagonist counterscreen protocol.
The HEK parental counterscreens utilized the same cells but not transfected with the plasmid. Acetylcholine was used in place of GPR139 agonist as the control compound. The cells were plated overnight, similar to the HEK antagonist counterscreen protocol.
For each test compound, percent activation was plotted against compound concentration. A four parameter equation describing a sigmoidal dose-response curve was then fitted with adjustable baseline using Assay Explorer software (Symyx Technologies Inc.).

As a reminder, the EC50 is the midpoint of the concentration-response curve. In the case of `Cc1cc(C)cc(-n2cnc3cc(C(=O)NCc4ccccc4Cl)ccc32)c1` [SR-01000579741], on GPR139 [1], the EC50 worked out at 3.1 µM, the “GPR139 Antagonist Activity Ligand Efficiency” value worked out at 0.28, the “GPR139 Antagonist Activity Averaged Max % Response (±St. Dev.)” value was 81.29 ± 5.44% and the “GPR139 Antagonist Activity Lipophilic Efficiency (logD)” value is on record as −62.7E−3. Besides, on GPR139 [1], the “GPR139 Antagonist Activity Lipophilic Efficiency (logP)” value was −63.1E−3 and the “GPR139 Antagonist Activity Hill Slope” value came to 2.25. Besides, at GPR139 [2], the “GRP139 Agonist activity Averaged Max % Response (±St. Dev.)” value is on record as 21.81 ± 2.59% and the concentration for a half-maximal effect (EC50) was greater than 13 µM. In addition, in the series on parental HEK cells, the “HEK antagonist activity Averaged Max % Response (±St. Dev.)” value was 13.52 ± 10.95% and the concentration for a half-maximal effect (EC50) is greater than 13 µM.
As to `CCOC(=O)N1CCC(NC(=O)c2cnn3c(O)c(Cc4cccc(C)c4)c(C)nc23)CC1` [SR-01000581959], at GPR139 [1], the “GPR139 Antagonist Activity Ligand Efficiency” value turned out to be 0.22, the “GPR139 Antagonist Activity Averaged Max % Response (±St. Dev.)” value is reported as 56.13 ± 9.03%, the “GPR139 Antagonist Activity Lipophilic Efficiency (logD)” value was determined as 2.24 and the “GPR139 Antagonist Activity Lipophilic Efficiency (logP)” value is 2.24. For the same compound, at GPR139 [1], the “GPR139 Antagonist Activity Hill Slope” value turned out to be 1.46. In addition, on GPR139 [2], the “GRP139 Agonist activity Averaged Max % Response (±St. Dev.)” value is given as −987E−3 ± 9.16 ^ %. In addition, in the series with parental HEK cells, the “HEK antagonist activity Averaged Max % Response (±St. Dev.)” value was determined as 14.54 ± 9.66% and the EC50 is greater than 13.4 µM.
With `Cc1cccc(-n2ccnc2SCC(=O)Nc2cccc(C)c2C)c1` [SR-01000907209], at GPR139 [1], the EC50 was greater than 1.6 µM, the “GPR139 Antagonist Activity Ligand Efficiency” value came to 0.33, the “GPR139 Antagonist Activity Averaged Max % Response (±St. Dev.)” value stood at 87.64 ± 8.11% and the “GPR139 Antagonist Activity Lipophilic Efficiency (logD)” value came to 0.62. Besides, at GPR139 [1], the “GPR139 Antagonist Activity Lipophilic Efficiency (logP)” value is 0.62. Further, at GPR139 [2], the “GRP139 Agonist activity Averaged Max % Response (±St. Dev.)” value turned out to be 13.37 ± 4.41% and the EC50 is greater than 14.1 µM. Also, in the series on parental HEK cells, the “HEK antagonist activity Averaged Max % Response (±St. Dev.)” value stood at 18.39 ± 12.65% and the concentration for a half-maximal effect (EC50) is greater than 14.1 µM.
As usually defined, the inhibition is the relative decrease from the control value, in per cent. Low readings indicate little suppression, high ones strong suppression. One may read the Ki as a dissociation constant, usually derived from enzyme kinetics or from competition with a known ligand. Take `O=C(Nc1cccc(-c2nnco2)c1)C1c2ccccc2Oc2ccccc21` [SR-01000907648-1 analog]: on GPR139 [3], the inhibition at 10 µM amounted to 65.5 ± 0.72% and the inhibition constant (Ki) came to 6.07 ± 0.14 µM.
With `Cc1c(-c2cccc(NC(=O)C3c4ccccc4Oc4ccccc43)c2)nc2ncccn12` [SR-01000907648], on GPR139 [1], the half-maximal effective concentration (EC50) stood at 1.5 µM, the “GPR139 Antagonist Activity Ligand Efficiency” value is reported as 0.25, the “GPR139 Antagonist Activity Averaged Max % Response (±St. Dev.)” value is 88.60 ± 6.25% and the “GPR139 Antagonist Activity Lipophilic Efficiency (logD)” value came out at 1.51. Besides, on GPR139 [1], the “GPR139 Antagonist Activity Lipophilic Efficiency (logP)” value was determined as 1.51 and the “GPR139 Antagonist Activity Hill Slope” value turned out to be 0.23. Also, at GPR139 [2], the “GRP139 Agonist activity Averaged Max % Response (±St. Dev.)” value turned out to be 35.82 ± 4.87% and the EC50 is greater than 14.1 µM. In the series on parental HEK cells, the “HEK antagonist activity Averaged Max % Response (±St. Dev.)” value is on record as 55.77 ± 9.26% and the 50% effective concentration (EC50) turned out to be 7.6 µM.
Regarding `CC(=O)Nc1ccc(Sc2ccc(S(=O)(=O)Nc3ccc(C)cc3C)cc2[N+](=O)[O-])cc1` [SR-07000003837-2 analog 1], at GPR139 [3], 10 µM produced 88.7 ± 21.1% inhibition and the Ki worked out at 9.45 ± 0.21 µM.
For `CN1CCN(S(=O)(=O)c2ccc(Sc3ccc(Cl)cc3)c([N+](=O)[O-])c2)CC1` [SR-07000003837-2 analog 2] the same measures were 51.9 ± 5.47% and 1.29 ± 0.03 µM.
